# Assay results taken from patent CN113214121A, “一种格列本脲-精氨酸共无定型” (Jiangsu Hengrui Medicine Co Ltd, priority 2020, dated 2021).
# Where two headings read alike, the source gives them in different places.
# How the values were obtained:
# [1] = Content of glyburide and arginine dissolved in the filtered supernatant, Example 2; assay type: physicochemical; conditions: 8mg glyburide + 8mg arginine in 10mL water, supersaturated solution at 60℃, 0.45um filter
# [2] = 25℃; cited from earlier work
# [3] = 100mg glyburide (form A) + 36mg arginine in 10mL water, room temperature, stirred overnight, 0.45um filter
solubility [1] [µg/mL],SMILES,solubility in water [2] [µg/mL],arginine content in supernatant [1] [mg/mL],arginine content in supernatant [3] [mg/mL]
800,"COc1ccc(Cl)cc1C(=O)NCCc1ccc(S(=O)(=O)NC(=O)NC2CCCCC2)cc1 [格列本脲, N-[2-[4-[[[(环己氨基)羰基]氨基]磺酰基]苯基]乙基]-2-甲氧基-5-氯苯甲酰胺]",100,,
,N=C(N)NCCCC(N)C(=O)O (stereo not shown) [精氨酸],,0.8,3.50
